Patent US10072023B2, “Diarylethene compounds and uses thereof” (SWITCH MATERIALS, INC., priority 2011, dated 2018)

Assays:
[1] = Absorbance at photostationary state (PSS) under simulated sunlight or 365 nm light; type: physicochemical; parameters: λ max: unit not given here; settings: for Absorbance at PSS, 365 nm: 365 nm light source; for Absorbance at PSS, 365 nm / Absorbance at PSS, full / Absorbance at PSS, +UV / λ max: 2.0×10^−5 M in triglyme; for sensitivity index: ratio of PSS under 365 nm light to PSS under full spectrum light (without UV blocking film); for Absorbance at PSS, full: simulated sunlight (QSUN solar simulator), no UV blocking film; for Absorbance at PSS, +UV: simulated sunlight with UV blocking film (cutoff 370 nm); for λ max: wavelength of maximum absorbance in the visible range, ring-closed isoform
Outline: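 Compounds at 2.0×10^−5 M in triglyme, photofaded with visible light, then irradiated with simulated sunlight (xenon arc) or 365 nm light until the UV/Vis spectrum stabilized. Also irradiated through a UV-blocking film (370 nm cutoff); sensitivity index is PSS under 365 nm divided by PSS under full spectrum.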

[2] = Solubility in indicated solvent; type: physicochemical; settings: % wt soluble in triglyme
From the text: A compound with greater solubility allows for a formulation or material with a greater concentration of coloured molecule to be incorporated into a composition. This may allow for increasing the contrast ratio for a compound with a lesser absorbance at PSS. Inclusion of a solubilizing group in a compound according to various embodiments of the invention may increase solubility. Examples of solubilizing groups may include alkoxy or siloxy groups.

Row | SMILES | Absorbance at PSS, 365 nm [1] | sensitivity index [1] | Absorbance at PSS, full [1] | Absorbance at PSS, +UV [1] | λ max [1] | Solubility [2]
1 | COc1cccc(-c2cc(C3=C(c4cc(-c5cccc(OC)c5)sc4-c4cccc(OC)c4)C(F)(F)C(F)(F)C3(F)F)c(-c3cccc(OC)c3)s2)c1 [S096, 3,3′-(perfluorocyclopent-1-ene-1,2-diyl)bis(2,5-bis(3-methoxyphenyl)thiophene)] | 0.183 | 4.07 | 0.045 | 0.014 | 609 | 15 % wt
2 | Cc1cc(-c2sc(C)c(C)c2C2=C(c3c(-c4cc(C)c(C)s4)sc(C)c3C)C(F)(F)C(F)(F)C2(F)F)sc1C [S039, 3,3′-(perfluorocyclopent-1-ene-1,2-diyl)bis(4,4′,5,5′-tetramethyl-2,2′-bithiophene)] | 0.372 | 7.75 | 0.048 | 0.028 | 570 | 2 % wt
3 | FC(F)(F)c1ccc(-c2cc(C3=C(c4cc(-c5ccc(C(F)(F)F)cc5)sc4-c4ccc(C(F)(F)F)cc4)C(F)(F)C(F)(F)C3(F)F)c(-c3ccc(C(F)(F)F)cc3)s2)cc1 [S044, 3,3′-(perfluorocyclopent-1-ene-1,2-diyl)bis(2,5-bis(4-(trifluoromethyl)phenyl)thiophene)] | 0.222 | 3.58 | 0.062 | 0.027 | 605 | 1 % wt
4 | CCOCCOCCOCCOC(CC)(CC)c1ccc(-c2sc(-c3ccc(C(C)(C)C)s3)cc2C2=C(c3cc(-c4ccc(C(C)(C)C)s4)sc3-c3ccc(C(CC)(CC)OCCOCCOCCOCC)s3)C(F)(F)C(F)(F)C2(F)F)s1 [S128, 13,13′-(3′,3″″-(perfluorocyclopent-1-ene-1,2-diyl)bis(5″-(tert-butyl)-[2,2′: 5′,2″-terthiophene]-5,3′-diyl))bis(13-ethyl-3,6,9,12-tetraoxapentadecane)] | 0.403 | 1.53 | 0.264 | 0.224 | 648 | >25 % wt
5 | Cc1cc(-c2cc(C3=C(c4cc(-c5cc(C)c(C)s5)sc4-c4cc(C)c(C)s4)C(F)(F)C(F)(F)C3(F)F)c(-c3cc(C)c(C)s3)s2)sc1C [S011] | 0.363 | 1.81 | 0.201 | 0.142 | 655 | 3 % wt
6 | CC(C)(C)c1ccc(-c2sc(-c3ccc(Cl)cc3)cc2C2=C(c3cc(-c4ccc(Cl)cc4)sc3-c3ccc(C(C)(C)C)cc3)C(F)(F)C(F)(F)C2(F)F)cc1 [S060] | 0.22 | 2.06 | 0.107 | 0.038 | 615 | 1 % wt
7 | c1ccc(-c2nc(-c3cc(-c4cccs4)sc3-c3cccs3)c(-c3cc(-c4cccs4)sc3-c3cccs3)s2)cc1 [S075] | 0.302 | 3.82 | 0.079 | 0.031 | 670 | 1 % wt
8 | Cc1c(-c2ccccc2)sc(-c2ccccc2)c1C1=C(c2c(-c3ccccc3)sc(-c3ccccc3)c2C)C(F)(F)C(F)(F)C1(F)F [S017, 4,4′-(perfluorocyclopent-1-ene-1,2-diyl)bis(3-methyl-2,5-diphenylthiophene)] | 0.049 | 5.44 | 0.009 | 0.0025 | 605 | 1 % wt
9 | COc1ccc(-c2cc(C3=C(c4cc(-c5ccc(OC)cc5)sc4-c4ccc(OC)cc4)C(F)(F)C(F)(F)C3(F)F)c(-c3ccc(OC)cc3)s2)cc1 [S054, 3,3′-(perfluorocyclopent-1-ene-1,2-diyl)bis(2,5-bis(4-methoxyphenyl)thiophene)] | 0.268 | 2.53 | 0.106 | 0.056 | 630 | 5-6 % wt
10 | CC(C)(C)c1ccc(-c2cc(C3=C(c4cc(-c5ccc(C(C)(C)C)cc5)sc4-c4cccs4)C(F)(F)C(F)(F)C3(F)F)c(-c3cccs3)s2)cc1 [S049, 3,3″-(perfluorocyclopent-1-ene-1,2-diyl)bis(5-(4-(tert-butyl)phenyl)-2,2′-bithiophene)] | 0.217 | 2.49 | 0.087 | 0.044 | 625 | 2 % wt
11 | COCCOCCOCCOc1ccc(-c2sc(-c3ccc(C(C)(C)C)s3)cc2C2=C(c3cc(-c4ccc(C(C)(C)C)s4)sc3-c3ccc(OCCOCCOCCOC)cc3)C(F)(F)C(F)(F)C2(F)F)cc1 [S108] | 0.374 | 1.28 | 0.292 | 0.215 | 645 | >25 % wt
12 | COCCC[Si](CCCOC)(CCCOC)c1ccc(-c2cc(C3=C(c4cc(-c5ccc([Si](CCCOC)(CCCOC)CCCOC)s5)sc4-c4ccc([Si](CCCOC)(CCCOC)CCCOC)s4)C(F)(F)C(F)(F)C3(F)F)c(-c3ccc([Si](CCCOC)(CCCOC)CCCOC)s3)s2)s1 [S138] | 0.337 | 1.10 | 0.306 | 0.262 | 650 | >20 % wt
13 | FC1(F)C(c2cc(-c3ccccc3)sc2-c2ccccc2)=C(c2cc(-c3ccc(Cl)cc3)sc2-c2ccccc2)C(F)(F)C1(F)F [S006, 5-(4-chlorophenyl)-3-(2-(2,5-diphenylthiophen-3-yl)-3,3,4,4,5,5-hexafluorocyclopent-1-en-1-yl)-2-phenylthiophene] | 0.141 | 3.71 | 0.038 | 0.013 | 610 | 3 % wt
14 | CC(C)(C)c1ccc(-c2sc(-c3ccccc3)cc2C2=C(c3cc(-c4ccccc4)sc3-c3ccc(C(C)(C)C)cc3)C(F)(F)C(F)(F)C2(F)F)cc1 [S057, 3,3′-(perfluorocyclopent-1-ene-1,2-diyl)bis(2-(4-tert-butylphenyl)-5-phenylthiophene)] | 0.204 | 2.58 | 0.079 | 0.033 | 610 | 1.5 % wt
15 | CC(C)(C)c1ccc(-c2cc(C3=C(c4cc(-c5ccc(C(C)(C)C)s5)sc4-c4ccc(C(C)(C)C)s4)C(F)(F)C(F)(F)C3(F)F)c(-c3ccc(C(C)(C)C)s3)s2)s1 [S003, 3′,3″″-(perfluorocyclopent-1-ene-1,2-diyl)bis(5,5″-di-tert-butyl-2,2′:5′,2″-terthiophene)] | 0.372 | 1.40 | 0.2655 | 0.2055 | 650 | <3 % wt
16 | CC(C)(C)c1ccc(-c2sc(-c3cccs3)cc2C2=C(c3cc(-c4cccs4)sc3-c3ccc(C(C)(C)C)cc3)C(F)(F)C(F)(F)C2(F)F)cc1 [S052, 4,4″-(perfluorocyclopent-1-ene-1,2-diyl)bis(5-(4-(tert-butyl)phenyl)-2,2′-bithiophene)] | 0.318 | 1.54 | 0.206 | 0.116 | 630 | 1 % wt
17 | COc1ccc(-c2cc(C3=C(c4cc(-c5ccc(OC)s5)sc4-c4ccc(OC)s4)C(F)(F)C(F)(F)C3(F)F)c(-c3ccc(OC)s3)s2)s1 [S020, 3′,3″″-(perfluorocyclopent-1-ene-1,2-diyl)bis(5,5″-dimethoxy-2,2′:5′,2″-terthiophene)] | 0.244 | 2.12 | 0.115 | 0.085 | 665 | 3 % wt
18 | c1ccc(-c2nc(-c3nc(-c4ccccc4)sc3-c3nc(-c4ccccc4)sc3-c3ccccc3)c(-c3ccccc3)s2)cc1 [S032, 2,2′,2″,5,5″-pentaphenyl-4,4′:5′,4″-terthiazole] | 0.594 | 18.56 | 0.032 | 0.008 | 600 | 1 % wt
19 | COCCOCCOCCOC(C)(C)c1ccc(-c2cc(C3=C(c4cc(-c5ccc(C(C)(C)OCCOCCOCCOC)cc5)sc4-c4ccc(C(C)(C)C)cc4)C(F)(F)C(F)(F)C3(F)F)c(-c3ccc(C(C)(C)C)cc3)s2)cc1 [S068, 12,12′-((4,4′-(perfluorocyclopent-1-ene-1,2-diyl)bis(5-(4-(tert-butyl)phenyl)thiophene-4,2-diyl))bis(4,1-phenylene))bis(12-methyl-2,5,8,11-tetraoxatridecane)] | 0.239 | 2.15 | 0.111 | 0.051 | 615 | >20 % wt
